Reference: patent US20030018991A1, “Transformation and regeneration of wheat using increased copper levels” (priority 2001, published 2003)
Read-outs that look alike come from different tables or passages of the source.

Tests used:
[1] = system: callus cultures in hexaploid wheat; settings: cited from earlier work
[2] = system: cultures of the anther of tetraploid (pasta) wheat; settings: cited from earlier work
wheat scutellar tissues = assay: Recovery of transgenic wheat lines and plant escapes after particle bombardment, with 100 μM copper in regeneration medium; assay type: cell-based
[3] = system: wheat embryogenic calluses induced from scutellar tissues; assay: Shoot regeneration from embryogenic calluses on RZ regeneration medium supplemented with CuSO4; assay type: cell-based; settings: for optimum range of copper concentration: number of plants regenerated per callus
Experimental: The primary culture explants were immature embryos or scutella. Wheat caryopses containing early-medium milk-stage grains with translucent embryos were harvested and surface-sterilised in 70% ethanol for 5 min and 0.5% hypochlorite solution for 15 min. Under aseptic conditions, embryos of approximately 0.5-1.0 mm length were isolated and either cultured entirely or the embryo axes were removed to produce isolated scutella. Thirty embryos/scutella were placed in the center (18 mm target circle) of a 90 mm Petri dish containing callus induction medium. The callus induction medium for embryos/scutellar tissues, called MD0.5, consisted of solidified (0.5% […], Sigma A3301) modified MS medium supplemented with 9% sucrose, 10 mg l^-1 AgNO3 and 0.5 mg l^-1 2,4-D (Rasco-Gaunt et al., 2001 J. Exp. Bot. 52 (357): 865-874). Embryos/scutella were placed with the embryo-axis side in contact with the medium. Cultures were incubated at 25±1° C. in darkness for approximately 24 hr before bombardment. Embryogenic calluses were transferred, for regeneration, to RZ regeneration medium and cultured under 12 h light (250 μE s^-1 m^-2, from cool white fluorescent tubes) at 25+1° C. for three weeks. The RZ regeneration medium, contained L salts, vitamins and myo-inositol, 3% w/v maltose, 0.1 mg l^-1 2,4-D and 5 mg l^-1 zeatin (Rasco-Gaunt and Barcelo, 1999 Plant Cell Culture Protocols. Methods in Molecular Biology series. Hall, RD ed. 111: 71-81, Humana Press, Totowa NJ) and CuSO4 at concentrations ranging from 0 to 1000 μM. The supplementation of silver nitrate in the range of 1-20 mg l^-1 is optional. Selection agents such as 2-6 mg l^-1 Glufosinate ammonium (Greyhound, United Kingdom) and 10-500 ppm sulfonylurea herbicide e.g. Nicosulfuron (DuPont, France) and Rimsulfuron (DuPont, France) were incorporated in RZ regeneration medium. A second three-week culture passage on the same medium was performed as required, with or without a selection agent. Following culture on RZ regeneration medium, plantlets were cultured for one or two three-week passages on R0 medium (RZ without hormones, AgNO3 and CuSO4 supplementation), with or without the selection agent. To determine the effects of increased copper concentration on shoot regeneration, embryogenic calluses were subcultured onto RZ regeneration medium (see Example 1) supplemented with CuSO4 at concentrations ranging from 0 to 1000 μM. Prior to transfer onto RZ regeneration medium, calluses were induced from scutellar tissues. Procedures for the growth of donor plant materials, isolation of explants and culture initiation are described in Example 1. Following culture on CuSO4 medium, the calluses were transferred to R0 medium (see Example 1). After three weeks, regeneration frequencies of calluses, average number of plant per callus, as well as shoot quality were noted. Regeneration frequency is calculated as the number of shoot-producing calluses divided by the total number of scutella isolated. Percent (%) regeneration is […] multiplied by 100.

[4] = 100 μM copper, PPT selection, different genotypes (Example 4)

O=S(=O)([O-])[O-].[Cu+2] [CuSO4]
regeneration rates relative to original MS copper level (0.1 μM) ([1]; 10 μM CuSO4, Purnhauser 1991): eight times higher
optimum Cu level ([1]; "more detailed" studies cited in Purnhauser 1991): 2 µM
optimum Cu level ([1]; Purnhauser 1991 study): 10 µM
maximum regeneration frequency achieved ([1]; optimum 10 μM Cu, single breeding line, Purnhauser 1991): 59%
production of embryoid from anthers versus control treatment ([2]; 20 or 40 μM CuSO4, three of four genotypes): increased
embryoid production ([2]; fourth genotype, all levels tested (10, 20 or 40 μM)): reduced
production of green plants versus control media ([2]; over the four genotypes, copper-containing media): lower
transformation frequency (wheat scutellar tissues; 100 μM CuSO4, Cadenza and NH535, PPT and sulfonylurea selection systems): improved
frequency of plant escapes (wheat scutellar tissues; [4]): did not have an important effect
recovery of transformants / transformation efficiencies (wheat scutellar tissues; [4]): improved
plant escape frequency (wheat scutellar tissues; 100 μM copper, plasmid pHP8092, PPT selection, varieties Cadenza and NH535): slightly higher
plant escapes (wheat scutellar tissues; 100 μM copper, variety Cadenza, PPT selection, constructs p15629 and pAHC20): clear reduction
escape frequency (wheat scutellar tissues; 100 μM copper, variety NH535, sulfonylurea selection, construct pML146): higher
shoot quality ([3]; copper levels up to 500 μM, Riband and Imp, versus control 0.1 μM copper): vigorous and prolific
optimum range of copper concentration ([3]; variety Eole): 100 to 150 µM
optimum range of copper concentration ([3]; variety NH535): 100 to 200 µM
regeneration frequencies ([3]; wheat variety Eole, CuSO4 levels up to 300 μM): 100%
Plant regeneration frequency ([3]; wheat variety Imp, CuSO4 levels up to 300 μM): 100%
regeneration frequencies ([3]; wheat variety NH535, CuSO4 levels up to 300 μM): 100%
Plant regeneration frequency ([3]; wheat variety Riband, levels up to 500 μM CuSO4): 100%
effect on regeneration frequency ([3]; while improving shoot quality): no negative effect
